Experimental data reported in the kinase profiling compilation of Christmann-Franck et al. (2016).

Experiments:
Test in all cases: KINOMEscan competition binding
Settings in all cases: compound 10.0 µM
RPS6KA2 KD1 (human) = RPS6KA2 KD1 (human) (UniProt Q15349)
CLK4 (human) = CLK4 (human) (UniProt Q9HAZ1)
PIM1 (human) = PIM1 (human) (UniProt P11309)
MAPK11 (human) = MAPK11 (human) (UniProt Q15759)
PAK1 (human) = PAK1 (human) (UniProt Q13153)
SYK (human) = SYK (human) (UniProt P43405)
MKNK1 (human) = MKNK1 (human) (UniProt Q9BUB5)
CAMKK1 (human) = CAMKK1 (human) (UniProt Q8N5S9)
CDC42BPB (human) = CDC42BPB (human) (UniProt Q9Y5S2)
PRKD2 (human) = PRKD2 (human) (UniProt Q9BZL6)
CDK8 (human) = CDK8 (human) (UniProt P49336)
SRC (human) = SRC (human) (UniProt P12931)
STK3 (human) = STK3 (human) (UniProt Q13188)
STK10 (human) = STK10 (human) (UniProt O94804)
MAPKAPK2 (human) = MAPKAPK2 (human) (UniProt P49137)
PRKX (human) = PRKX (human) (UniProt P51817)
IRAK3 (human) = IRAK3 (human) (UniProt Q9Y616)
RAF1 (human) = RAF1 (human) (UniProt P04049)
TYRO3 (human) = TYRO3 (human) (UniProt Q06418)
CDK18 (human) = CDK18 (human) (UniProt Q07002)
EPHA1 (human) = EPHA1 (human) (UniProt P21709)
LIMK1 (human) = LIMK1 (human) (UniProt P53667)
MERTK (human) = MERTK (human) (UniProt Q12866)
STK33 (human) = STK33 (human) (UniProt Q9BYT3)
GSK3B (human) = GSK3B (human) (UniProt P49841)
CHUK (human) = CHUK (human) (UniProt O15111)
STK4 (human) = STK4 (human) (UniProt Q13043)
[1] = system: FLT3 (human), P36888 [N841I]
STK35 (human) = STK35 (human) (UniProt Q8TDR2)
PIK3CD (human) = PIK3CD (human) (UniProt O00329)
CDK11B (human) = CDK11B (human) (UniProt P21127)
RIOK1 (human) = RIOK1 (human) (UniProt Q9BRS2)
RET (human) = RET (human) (UniProt P07949)
CDK15 (human) = CDK15 (human) (UniProt Q96Q40)
DAPK3 (human) = DAPK3 (human) (UniProt O43293)
CDKL2 (human) = CDKL2 (human) (UniProt Q92772)
MAP3K4 (human) = MAP3K4 (human) (UniProt Q9Y6R4)
CSNK1D (human) = CSNK1D (human) (UniProt P48730)
PDGFRA (human) = PDGFRA (human) (UniProt P16234)
CDK16 (human) = CDK16 (human) (UniProt Q00536)

RET (human), sequence (P07949 whole entry, looked up): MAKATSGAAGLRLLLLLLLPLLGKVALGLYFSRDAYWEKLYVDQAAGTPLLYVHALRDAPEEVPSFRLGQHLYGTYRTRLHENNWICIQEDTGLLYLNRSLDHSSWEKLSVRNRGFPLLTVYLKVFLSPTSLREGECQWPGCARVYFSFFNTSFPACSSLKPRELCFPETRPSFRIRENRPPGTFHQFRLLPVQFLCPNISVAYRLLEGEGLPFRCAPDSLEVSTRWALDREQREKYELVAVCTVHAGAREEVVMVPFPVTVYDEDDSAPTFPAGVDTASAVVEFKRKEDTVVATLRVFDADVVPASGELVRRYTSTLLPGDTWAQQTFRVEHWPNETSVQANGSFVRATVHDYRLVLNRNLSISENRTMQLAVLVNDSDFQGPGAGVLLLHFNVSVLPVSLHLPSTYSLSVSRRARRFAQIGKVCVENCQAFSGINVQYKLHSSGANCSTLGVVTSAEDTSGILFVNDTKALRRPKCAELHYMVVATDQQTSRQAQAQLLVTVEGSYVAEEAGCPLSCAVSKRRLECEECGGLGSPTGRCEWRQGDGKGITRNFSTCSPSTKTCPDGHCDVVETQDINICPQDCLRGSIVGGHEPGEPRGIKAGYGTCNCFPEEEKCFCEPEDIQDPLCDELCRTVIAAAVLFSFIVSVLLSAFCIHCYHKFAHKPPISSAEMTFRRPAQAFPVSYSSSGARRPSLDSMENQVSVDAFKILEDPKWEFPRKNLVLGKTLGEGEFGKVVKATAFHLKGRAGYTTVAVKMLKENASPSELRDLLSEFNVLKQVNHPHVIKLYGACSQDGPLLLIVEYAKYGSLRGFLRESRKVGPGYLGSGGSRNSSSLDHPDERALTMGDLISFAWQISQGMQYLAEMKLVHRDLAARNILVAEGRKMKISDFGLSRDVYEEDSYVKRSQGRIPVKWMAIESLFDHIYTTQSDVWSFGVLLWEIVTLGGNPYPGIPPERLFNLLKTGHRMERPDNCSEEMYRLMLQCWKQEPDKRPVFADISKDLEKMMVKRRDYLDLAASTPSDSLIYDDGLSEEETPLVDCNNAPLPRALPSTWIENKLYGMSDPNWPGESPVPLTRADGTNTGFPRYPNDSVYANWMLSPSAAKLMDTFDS
GSK3B (human), sequence (P49841 whole entry, looked up): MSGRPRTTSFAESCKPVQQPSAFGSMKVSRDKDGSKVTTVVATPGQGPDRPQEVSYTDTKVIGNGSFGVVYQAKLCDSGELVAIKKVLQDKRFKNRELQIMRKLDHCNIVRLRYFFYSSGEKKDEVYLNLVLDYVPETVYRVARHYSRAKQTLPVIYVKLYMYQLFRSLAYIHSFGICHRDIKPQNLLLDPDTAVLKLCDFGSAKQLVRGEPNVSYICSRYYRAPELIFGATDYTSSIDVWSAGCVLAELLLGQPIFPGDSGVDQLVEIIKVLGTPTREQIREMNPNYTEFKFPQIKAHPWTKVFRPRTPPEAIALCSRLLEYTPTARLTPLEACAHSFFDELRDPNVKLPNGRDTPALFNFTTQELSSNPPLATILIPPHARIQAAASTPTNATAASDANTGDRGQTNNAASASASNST
PAK1 (human), sequence (Q13153 whole entry, looked up): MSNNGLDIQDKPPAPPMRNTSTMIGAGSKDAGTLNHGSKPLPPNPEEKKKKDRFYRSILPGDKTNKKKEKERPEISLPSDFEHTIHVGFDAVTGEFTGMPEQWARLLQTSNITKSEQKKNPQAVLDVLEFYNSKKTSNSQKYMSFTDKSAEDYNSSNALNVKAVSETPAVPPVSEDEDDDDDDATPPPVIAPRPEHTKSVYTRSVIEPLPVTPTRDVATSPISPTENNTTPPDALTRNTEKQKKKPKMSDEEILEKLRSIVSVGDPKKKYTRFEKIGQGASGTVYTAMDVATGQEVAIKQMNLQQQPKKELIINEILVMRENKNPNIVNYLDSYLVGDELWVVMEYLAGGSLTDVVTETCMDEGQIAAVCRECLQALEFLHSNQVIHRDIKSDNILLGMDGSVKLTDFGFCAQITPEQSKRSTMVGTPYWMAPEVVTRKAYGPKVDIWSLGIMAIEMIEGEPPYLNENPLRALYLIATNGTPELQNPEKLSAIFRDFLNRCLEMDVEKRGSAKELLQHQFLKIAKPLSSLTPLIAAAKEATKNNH
IRAK3 (human), sequence (Q9Y616 whole entry, looked up): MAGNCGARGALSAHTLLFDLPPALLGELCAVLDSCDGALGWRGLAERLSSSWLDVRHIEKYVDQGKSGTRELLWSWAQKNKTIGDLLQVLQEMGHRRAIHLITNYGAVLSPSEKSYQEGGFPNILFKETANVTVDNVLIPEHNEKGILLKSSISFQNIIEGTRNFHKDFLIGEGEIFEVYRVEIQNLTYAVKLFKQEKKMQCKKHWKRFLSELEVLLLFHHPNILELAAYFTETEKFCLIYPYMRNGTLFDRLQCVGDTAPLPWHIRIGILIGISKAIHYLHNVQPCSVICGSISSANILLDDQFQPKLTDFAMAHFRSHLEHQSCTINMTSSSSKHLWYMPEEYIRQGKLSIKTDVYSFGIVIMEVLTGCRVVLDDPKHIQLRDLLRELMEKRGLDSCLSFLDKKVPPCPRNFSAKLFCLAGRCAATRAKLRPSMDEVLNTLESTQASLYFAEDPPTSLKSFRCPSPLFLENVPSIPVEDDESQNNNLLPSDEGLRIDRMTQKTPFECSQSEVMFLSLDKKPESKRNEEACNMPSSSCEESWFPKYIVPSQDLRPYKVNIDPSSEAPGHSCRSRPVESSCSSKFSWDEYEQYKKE
CSNK1D (human), sequence (P48730 whole entry, looked up): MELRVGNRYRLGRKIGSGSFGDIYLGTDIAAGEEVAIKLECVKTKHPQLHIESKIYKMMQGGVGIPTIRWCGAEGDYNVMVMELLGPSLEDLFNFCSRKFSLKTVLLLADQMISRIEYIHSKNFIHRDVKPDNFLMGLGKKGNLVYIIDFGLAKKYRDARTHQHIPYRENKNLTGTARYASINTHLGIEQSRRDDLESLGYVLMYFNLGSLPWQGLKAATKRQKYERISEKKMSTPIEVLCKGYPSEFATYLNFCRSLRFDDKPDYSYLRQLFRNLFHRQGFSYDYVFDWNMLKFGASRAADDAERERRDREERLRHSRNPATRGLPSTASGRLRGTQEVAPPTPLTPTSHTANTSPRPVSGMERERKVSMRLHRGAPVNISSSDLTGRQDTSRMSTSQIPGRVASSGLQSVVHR
MERTK (human), sequence (Q12866 whole entry, looked up): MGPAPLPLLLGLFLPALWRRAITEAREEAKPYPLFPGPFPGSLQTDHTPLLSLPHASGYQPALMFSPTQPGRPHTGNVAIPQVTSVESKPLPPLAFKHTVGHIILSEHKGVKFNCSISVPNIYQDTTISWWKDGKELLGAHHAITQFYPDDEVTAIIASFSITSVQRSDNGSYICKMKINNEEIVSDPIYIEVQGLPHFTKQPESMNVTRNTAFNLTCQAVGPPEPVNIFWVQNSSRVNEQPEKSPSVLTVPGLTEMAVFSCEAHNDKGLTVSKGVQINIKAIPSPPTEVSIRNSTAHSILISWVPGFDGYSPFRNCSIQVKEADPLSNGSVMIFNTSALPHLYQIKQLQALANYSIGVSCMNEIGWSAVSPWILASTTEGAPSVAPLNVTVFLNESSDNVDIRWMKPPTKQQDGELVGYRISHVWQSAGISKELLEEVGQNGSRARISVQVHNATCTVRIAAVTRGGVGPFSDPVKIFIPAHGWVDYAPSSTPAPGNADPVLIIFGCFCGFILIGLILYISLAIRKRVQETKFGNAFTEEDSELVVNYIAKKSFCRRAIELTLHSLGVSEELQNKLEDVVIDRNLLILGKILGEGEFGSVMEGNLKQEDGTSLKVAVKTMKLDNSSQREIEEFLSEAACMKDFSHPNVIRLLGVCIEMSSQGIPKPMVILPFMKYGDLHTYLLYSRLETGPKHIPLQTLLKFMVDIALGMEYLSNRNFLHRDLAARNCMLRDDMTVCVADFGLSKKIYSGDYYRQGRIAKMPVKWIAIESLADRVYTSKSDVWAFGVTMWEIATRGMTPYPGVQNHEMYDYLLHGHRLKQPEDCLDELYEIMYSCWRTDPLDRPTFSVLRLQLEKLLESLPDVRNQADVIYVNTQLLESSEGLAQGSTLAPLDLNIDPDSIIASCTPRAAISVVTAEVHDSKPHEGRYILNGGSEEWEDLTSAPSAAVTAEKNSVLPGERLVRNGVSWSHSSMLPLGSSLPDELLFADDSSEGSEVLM
STK3 (human), sequence (Q13188 whole entry, looked up): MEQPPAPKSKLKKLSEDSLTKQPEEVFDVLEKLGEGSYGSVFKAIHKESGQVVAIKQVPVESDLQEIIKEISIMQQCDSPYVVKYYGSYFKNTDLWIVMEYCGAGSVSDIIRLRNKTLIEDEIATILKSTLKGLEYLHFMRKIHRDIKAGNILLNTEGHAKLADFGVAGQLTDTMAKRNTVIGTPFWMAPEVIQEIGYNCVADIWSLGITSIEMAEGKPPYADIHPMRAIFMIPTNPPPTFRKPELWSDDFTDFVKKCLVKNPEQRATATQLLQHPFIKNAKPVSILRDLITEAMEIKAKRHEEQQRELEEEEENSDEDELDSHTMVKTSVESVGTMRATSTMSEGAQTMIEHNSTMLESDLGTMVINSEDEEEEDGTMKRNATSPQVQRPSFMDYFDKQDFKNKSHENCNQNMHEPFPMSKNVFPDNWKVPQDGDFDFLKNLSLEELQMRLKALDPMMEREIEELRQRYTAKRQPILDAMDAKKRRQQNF
DAPK3 (human), sequence (O43293 whole entry, looked up): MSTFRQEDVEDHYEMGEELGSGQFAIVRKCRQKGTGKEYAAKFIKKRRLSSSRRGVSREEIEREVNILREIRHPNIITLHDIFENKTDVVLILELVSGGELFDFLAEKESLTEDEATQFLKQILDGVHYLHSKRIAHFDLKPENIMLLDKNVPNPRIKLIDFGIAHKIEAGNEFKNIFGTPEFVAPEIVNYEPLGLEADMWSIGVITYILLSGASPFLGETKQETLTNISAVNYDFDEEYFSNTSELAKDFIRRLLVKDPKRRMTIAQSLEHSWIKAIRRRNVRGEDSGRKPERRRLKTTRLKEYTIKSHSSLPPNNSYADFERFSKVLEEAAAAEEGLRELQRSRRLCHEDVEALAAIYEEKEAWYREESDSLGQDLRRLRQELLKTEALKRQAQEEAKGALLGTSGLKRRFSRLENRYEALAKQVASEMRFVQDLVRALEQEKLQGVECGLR

Compound | kinase still bound, per cent of control (RPS6KA2 KD1 (human)) [%] | kinase still bound, per cent of control (CLK4 (human)) [%] | kinase still bound, per cent of control (PIM1 (human)) [%] | kinase still bound, per cent of control (MAPK11 (human)) [%] | kinase still bound, per cent of control (PAK1 (human)) [%] | kinase still bound, per cent of control (SYK (human)) [%] | kinase still bound, per cent of control (MKNK1 (human)) [%] | kinase still bound, per cent of control (CAMKK1 (human)) [%] | kinase still bound, per cent of control (CDC42BPB (human)) [%] | kinase still bound, per cent of control (PRKD2 (human)) [%] | kinase still bound, per cent of control (CDK8 (human)) [%] | kinase still bound, per cent of control (SRC (human)) [%] | kinase still bound, per cent of control (STK3 (human)) [%] | kinase still bound, per cent of control (MAPKAPK2 (human)) [%] | kinase still bound, per cent of control (PRKX (human)) [%] | kinase still bound, per cent of control (RAF1 (human)) [%] | kinase still bound, per cent of control (TYRO3 (human)) [%] | kinase still bound, per cent of control (CDK18 (human)) [%] | kinase still bound, per cent of control (EPHA1 (human)) [%] | kinase still bound, per cent of control (LIMK1 (human)) [%] | other results
Cc1ccc2nc(NCCN)c3ncc(C)n3c2c1 | 100 | 53 | 100 | 87 | 100 | 100 | 100 | 100 | 100 | 72 | 100 | 100 | 90 | 100 | 86 | 100 | 100 | 100 | 79 | 100 | kinase still bound, per cent of control (STK10 (human)): 100%; kinase still bound, per cent of control (IRAK3 (human)): 72%; kinase still bound, per cent of control (MERTK (human)): 100%; kinase still bound, per cent of control (STK33 (human)): 73%; kinase still bound, per cent of control (GSK3B (human)): 68%; kinase still bound, per cent of control (CHUK (human)): 86%; kinase still bound, per cent of control (STK4 (human)): 100%; kinase still bound, per cent of control [1]: 41%; kinase still bound, per cent of control (STK35 (human)): 90%; kinase still bound, per cent of control (PIK3CD (human)): 99%; kinase still bound, per cent of control (CDK11B (human)): 0.95%; kinase still bound, per cent of control (RIOK1 (human)): 100%; kinase still bound, per cent of control (RET (human)): 100%; kinase still bound, per cent of control (CDK15 (human)): 100%; kinase still bound, per cent of control (DAPK3 (human)): 53%; kinase still bound, per cent of control (CDKL2 (human)): 82%; kinase still bound, per cent of control (MAP3K4 (human)): 100%; kinase still bound, per cent of control (CSNK1D (human)): 45%
CCCS(=O)(=O)Nc1ccc(F)c(C(=O)c2c[nH]c3ncc(-c4ccc(Cl)cc4)cc23)c1F | 39 | 100 | 95 | 29 | 95 | 66 | 70 | 86 | 79 | 95 | 4.6 | 3.4 | 1.9 | 100 | 100 | 0.95 | 100 | 100 | 82 | 27 | kinase still bound, per cent of control (PDGFRA (human)): 0.45%; kinase still bound, per cent of control (STK10 (human)): 16%; kinase still bound, per cent of control (MERTK (human)): 60%; kinase still bound, per cent of control (STK33 (human)): 94%; kinase still bound, per cent of control (GSK3B (human)): 100%; kinase still bound, per cent of control (CHUK (human)): 87%; kinase still bound, per cent of control (STK4 (human)): 11%; kinase still bound, per cent of control (STK35 (human)): 100%; kinase still bound, per cent of control (PIK3CD (human)): 89%; kinase still bound, per cent of control (CDK16 (human)): 96%; kinase still bound, per cent of control (CDK11B (human)): 100%; kinase still bound, per cent of control (RIOK1 (human)): 100%; kinase still bound, per cent of control (RET (human)): 43%; kinase still bound, per cent of control (CDK15 (human)): 96%; kinase still bound, per cent of control (DAPK3 (human)): 95%; kinase still bound, per cent of control (CDKL2 (human)): 49%; kinase still bound, per cent of control (MAP3K4 (human)): 63%; kinase still bound, per cent of control (CSNK1D (human)): 97%
OCCCNc1cc(-c2ccnc(Nc3cccc(Cl)c3)n2)ccn1 | 100 | 14 | 100 | 100 | 100 | 100 | 100 | 100 | 100 | 100 | 100 | 100 | 100 | 100 | 100 | 100 | 100 | 100 | 100 | 100 | kinase still bound, per cent of control (PDGFRA (human)): 100%; kinase still bound, per cent of control (STK10 (human)): 100%; kinase still bound, per cent of control (IRAK3 (human)): 100%; kinase still bound, per cent of control (MERTK (human)): 100%; kinase still bound, per cent of control (GSK3B (human)): 100%; kinase still bound, per cent of control (CHUK (human)): 100%; kinase still bound, per cent of control (STK4 (human)): 100%; kinase still bound, per cent of control [1]: 100%; kinase still bound, per cent of control (STK35 (human)): 100%; kinase still bound, per cent of control (PIK3CD (human)): 100%; kinase still bound, per cent of control (CDK16 (human)): 1.9%; kinase still bound, per cent of control (CDK11B (human)): 100%; kinase still bound, per cent of control (RIOK1 (human)): 100%; kinase still bound, per cent of control (RET (human)): 100%; kinase still bound, per cent of control (CDK15 (human)): 100%; kinase still bound, per cent of control (DAPK3 (human)): 100%; kinase still bound, per cent of control (CDKL2 (human)): 14%; kinase still bound, per cent of control (MAP3K4 (human)): 100%; kinase still bound, per cent of control (CSNK1D (human)): 100%
O=C(NOC[C@H](O)CO)c1ccc(F)c(F)c1Nc1ccc(I)cc1F | 100 | 89 | 100 | 100 | 100 | 100 | 100 | 100 | 83 | 100 | 100 | 69 | 90 | 84 | 100 | 99 | 80 | 100 | 91 | 68 | kinase still bound, per cent of control (PDGFRA (human)): 96%; kinase still bound, per cent of control (IRAK3 (human)): 100%; kinase still bound, per cent of control (MERTK (human)): 100%; kinase still bound, per cent of control (STK33 (human)): 79%; kinase still bound, per cent of control (GSK3B (human)): 68%; kinase still bound, per cent of control (CHUK (human)): 100%; kinase still bound, per cent of control (STK4 (human)): 100%; kinase still bound, per cent of control [1]: 78%; kinase still bound, per cent of control (STK35 (human)): 83%; kinase still bound, per cent of control (PIK3CD (human)): 40%; kinase still bound, per cent of control (CDK16 (human)): 100%; kinase still bound, per cent of control (CDK11B (human)): 97%; kinase still bound, per cent of control (RIOK1 (human)): 95%; kinase still bound, per cent of control (RET (human)): 90%; kinase still bound, per cent of control (CDK15 (human)): 78%; kinase still bound, per cent of control (DAPK3 (human)): 100%; kinase still bound, per cent of control (CDKL2 (human)): 87%; kinase still bound, per cent of control (MAP3K4 (human)): 100%; kinase still bound, per cent of control (CSNK1D (human)): 100%
